“Also recorded” adds a separate entry of the source. Read-outs that look alike come from different tables or passages of the source.
How the values were obtained:
Format in all cases: cell-based
[1] = tested on: mast cells (from a mast cell line, RBL2H3); assay: FcεRI ligation-induced mast cell degranulation measured by histamine release (ELISA); details: for inhibition at 10 µM: Rattus norvegicus; for anti-inflammatory effects on mast cell degranulation (in words): individual compound alone, 10 μM, histamine release; for increase of FcεRI ligation-induced histamine secretion: compound alone at 10 μM (FIG. 5)
Protocol: For the FcεRI assay, mast cells (from a mast cell line, RBL2H3) were plated in cluster plates at 5×10^4 cells/well. Monolayers were washed and incubated in 200 μl Tyrode's buffer. The mast cells were then primed with 1 μg/ml IgE-anti-DNP antibodies for 16 hours. The cells were then washed three times and a cannabinoid-containing complex mixture, prepared as above-described, was applied. The tested complex mixtures were applied in an amount calculated to expose the mast cells to 10 μM of cannabidiol and 10 μM of each minor cannabinoid or terpene component. Control for maximal FcεRI ligation-induced degranulation included no cannabinoid-containing complex mixture.
After 10 minutes, 250 ng/ml of DNP-BSA was applied to ligate FcεRI molecules on the mast cell surface.
Mast cell culture medium was collected 60 minutes after exposure to DNP-BSA with or without a tested cannabinoid-containing complex mixture. Degranulation of the mast cells was tested by measuring histamine release using a commercial ELISA kit (e.g., histamine ELISA kit available from ENZO Life Sciences, Inc., Rocky Mountain Diagnostics, Inc., etc.).
Mast cell degranulation for each tested complex mixture was measured based on the amount of histamine release and is presented as % histamine release compared to histamine release in response to PMA/Ionomycin (100%). Each complex mixture was tested in twenty-four (8×3) independent experiments and data from the twenty four independent experiments were averaged. The averaged values are presented as a bar for each complex mixture in FIG. 2. Standard deviations are also provided in the graph.
The % degranulation in response to each cannabinoid-containing complex mixture was used to calculate % inhibition of degranulation by subtracting the % degranulation from 100%.
Anti-inflammatory effects of (i) each major cannabinoid, (ii) each minor cannabinoid, and (iii) each selected terpene, were assessed based on their inhibition of FcεRI-induced mast cell degranulation by measuring histamine release as described above.
Their anti-inflammatory effects are presented as % reduction of histamine release in the presence of the tested compound compared to the histamine release in the presence of PMA/Ionomycin (0%). Standard deviations of the experimental data are also provided in the graphs.

Mast cells [2] = assay: FcεRI-induced mast cell degranulation, beta-hexoseaminidase assay (dose response); details: for change of anti-inflammatory effects when 10 μM cannabigerol was added: various concentrations (1 nM to 50 μM) plus 10 μM cannabigerol; for IC50: read-out: IC50 of inhibitory effects on FcεRI-induced degranulation
Protocol: As provided in FIG. 12, anti-inflammatory effects of limonene, and cannabidiol (CBD), were assessed at 11 different concentrations (x-axis: 0, 1, 5, 10, 50, 100, 500, 1000, 5000, 10000, 50000 nM) in the presence (a line with triangles and a line with circles, respectively) or absence of 10 μM cannabigerol (CBG-a line with diamonds and a line with exes, respectively). In this experiment, anti-inflammatory effects of the mixtures were based on effects on mast cell degranulation, measured using a beta-hexoseaminidase assay.
Beta-hexoseaminidase assays: Mast cells were primed with anti-DNPA IgE, and then stimulated with DNP-BSA in the presence of absence of a tested composition as described in Example 2. Mast cell culture medium was collected 60 minutes after exposure to FcεRI and incubated for 45 minutes at 37° C. 25 μl of its supernatant was removed, clarified by microcentrifugation, and transferred to a 96 well plate containing 100 μl per well 1 mM p-N-acetyl glucosamine (Sigma) in 0.05 M citrate buffer pH 4.5. After incubating the mixture for 1 hour at 37° C., the reaction was quenched by addition of 100 μl per well 0.2 M glycine, pH 9.0. Beta-hexosaminidase levels were read as OD at 405 nm.

RBL2H3 cells [3] = assay: FcεRI-induced degranulation with CBG/CBD, FAAH inhibitor or PDEI pre-incubation (beta-hexoaseaminidase assay); details: for Outcome (normalized cellular degranulation response): T60
Protocol: Experiments were conducted to test the hypothesis that CBG-mediated anti-inflammatory effects, i.e., suppression of degranulation, is by increase of intracellular cAMP and the increase of intracellular cAMP results from CBG's antagonizing effects on the interaction between AEA and CB1/2 receptors. To test this hypothesis, the ability of CBG to decrease FcεRI-induced degranulation was assessed. Mast cells were incubated with or without CBG before addition of FcεRI. An FAAH inhibitor was used as a control to increase the levels of AEA and thus saturate the CB1/2 receptors, resulting in decreased cAMP. PDEI was used as a control to directly increase the levels of intracellular cAMP. Cells were also incubated with CBD alone or CBG and CBD to assess the synergistic effects of CBD and CBG.
RBL2H3 cells were pre-incubated for 3 h at 37° C. at with (i) 10 μM FAAH inhibitor LY2183240/PF750 cocktail, (ii) 10 μM PDEI 3-isobutyl-1-methylxanthine (IBMX), or (iii) vehicle (Table 3). Vehicle or 300 nM CBG (30% of the CBG dose previously determined to cause maximal enhancement of the suppressive effect of CBD) was applied to Groups D-F and J-I, the first—one hour prior to FcεRI-induction—and the second—two hour prior to FcεRI-induction (T0, antigen), and remained throughout the course of the experiment. Vehicle was DMSO, methanol, or PBS. 10 μM CBD was additionally added to Groups D-I, 20 minutes prior to FcεRI-induction of degranulation. Cellular degranulation was measured using a beta-hexoaseaminidase assay at 1 h post-induction (T60). Replicates were done in triplicate and averaged. Degranulation of each of the groups was normalized to Row L. The outcome data presented in the column “Outcome” of Table 3 is the normalized cellular degranulation response of each averaged group. Group ABC was p<0.005 relative to Group LMN. Group GHI was p<0.005 relative to Group LMN. Row F had no significant difference relative to Row D. Row E was p<0.05 relative to Row D.

RBL2H3 cells [4] = assay: Intracellular free calcium assay (Fluo-4); details: external calcium 1 mM
Protocol: FIG. 16 provides data from Example 6 illustrating the intracellular free calcium measurements in the presence of external calcium (1 mM) in RBL2H3 cells stimulated in the absence (control vehicle) or presence of 1, 10, or 50 μM CBG. Ionomycin was used as a positive control. Stimuli were added at 20 s.
RBL2H3 cells were washed and incubated with 0.2 μM Fluo-4 for 30 minutes at 37° C. in a standard modified Ringer's solution (145 mM NaCl, 2.8 mM KC1, 10 mM CsCl, +/−1-10 mM CaCl2, 2 mM MgCl2, 10 mM glucose, 10 mM HEPES, pH 7.4, 330 mOsm). Cells were transferred to 96-well plates at 50,000 cells/well and stimulated with 1, 10, or 50 μM CBG. 500 nM ionomycin was used as positive control to induce calcium response. Calcium signals were acquired using a Flexstation 3 (Molecular Devices, Sunnydale, USA) for 3 min. Data was analyzed using SoftMax® Pro 5 (Molecular Devices).

Mast cells [5] = assay: Histamine release with cannabidivarin, with or without FcεRI ligation (time course)
Protocol: FIG. 7A provides data from Example 3 illustrating pro-inflammatory effects of cannabidivarin. […] The X-axis represents minutes after application of the FcεRI crosslinking agonist, and the y-axis represents the amount of histamine release (pg/10 million cells). FIG. 7B compares histamine release (pg/10 million cells) measured 10 minutes after exposure to the FcεRI crosslinking agonist (left) or to cannabidivarin without the FcεRI crosslinking agonist (right).
The x-axis represents minutes after application of BSA-DNP and y-axis represents the amount of histamine release (pg/10 million cells). Pro-inflammatory effects of cannabidivarin was even greater than effects of FcεRI ligation; histamine release in response to FcεRI ligation was about 220 pg/10 million cells after 10 minute exposure, while histamine release in response to cannabidivarin (without concurrent FcεRI ligation) was about 340 pg/10 million cells.

[6] = tested on: mast cells (from a mast cell line, RBL2H3); assay: FcεRI ligation-induced mast cell degranulation measured by histamine release (ELISA); details: nanomolar concentration; compared to PMA/Iomomycin (100%)
[7] = RBL-2H3, read-out: % inhibition of FcεRI-induced degranulation (reduction of histamine secretion)
[8] = Antigen at T0, cells pre-incubated 3 h with 10 μM FAAH inhibitor LY2183240/PF750 cocktail, 300 nM CBG, 10 μM CBD
[9] = Antigen at T0, cells pre-incubated 3 h with 10 μM PDEI IBMX, 300 nM CBG, 10 μM CBD
[10] = Antigen at T0, only the named substance(s), otherwise vehicle, 300 nM CBG, 10 μM CBD, 10 μM LY2183240/PF750 or IBMX, normalized to Row L

CCCCCc1cc(O)c2c(c1)OC(C)(CCC=C(C)C)C=C2 (stereo not drawn) [cannabichromene]
inhibition at 10 µM [1, 7]: ≤ 20% | anti-inflammatory effects on mast cell degranulation (in words) [1]: almost no anti-inflammatory effects

C=C(C)[C@@H]1CCC(C)=C[C@H]1c1c(O)cc(CCCCC)cc1O [cannabidiol]
change of anti-inflammatory effects when 10 μM cannabigerol was added (Mast cells [2]): significantly enhanced their anti-inflammatory effects | inhibition at 10 µM ([1]; RBL-2H3, read-out: % inhibition of FcεRI-induced degranulation (reduction of histamine secretion), individual compound alone at 10 μM): 23% | Outcome (normalized cellular degranulation response) (RBL2H3 cells [3]; [8]): 0.56 | Outcome (normalized cellular degranulation response) (RBL2H3 cells [3]; [9]): 0.32 | Outcome (normalized cellular degranulation response) (RBL2H3 cells [3]; [10]): 0.54

CC1=CCC2CC1C2(C)C (stereo not drawn) [pinene]
anti-inflammatory effects on mast cell degranulation (in words) [1]: almost no anti-inflammatory effects

C=C(C)[C@H]1CC=C(C)CC1 [limonene]
IC50 (Mast cells [2]; alone): ~480 nM | IC50 (Mast cells [2]; in combination with 10 μM cannabigerol (CBG)): ~100 nM | change of anti-inflammatory effects when 10 μM cannabigerol was added (Mast cells [2]): significantly enhanced their anti-inflammatory effects | % inhibition of FcεRI-induced degranulation (reduction of histamine secretion) ([1]; individual compound alone at 10 μM): 24%

C/C(=C\CO)CCC[C@H](C)CCC[C@H](C)CCCC(C)C [phytol]
anti-inflammatory effects on mast cell degranulation (in words) [1]: almost no anti-inflammatory effects

C=CC(C)(O)CCC=C(C)CCC=C(C)C (stereo not drawn) [nerolidol]
anti-inflammatory effects on mast cell degranulation (in words) [1]: almost no anti-inflammatory effects

CC(C)Cn1c(=O)n(C)c(=O)c2[nH]cnc21 [IBMX, 3-isobutyl-1-methylxanthine]
Outcome (normalized cellular degranulation response) (RBL2H3 cells [3]; [10]): 0.34 | reduction of FcεRI-induced degranulation (RBL2H3 cells [3]; alone, 10 μM, Row N): 3 fold | Outcome (normalized cellular degranulation response) (RBL2H3 cells [3]; no Antigen (vehicle at T0), 10 μM pre-incubation 3 h): 0.06

CCCCCc1cc(O)c(C/C=C(\C)CCC=C(C)C)c(O)c1 [cannabigerol]
effect on intracellular calcium (RBL2H3 cells [4]; 50 μM): moderate increase in intracellular calcium | effect on intracellular calcium (RBL2H3 cells [4]; lower doses (1 and 10 μM)): did not significantly alter the intracellular calcium | suppression of FcεRI ligation-induced degranulation (Mast cells [2]; alone, at the highest concentration tested (50 μM)): less than 10% | inhibition at 10 µM [1, 7]: ≤ 20% | anti-inflammatory effects on mast cell degranulation (in words) [1]: almost no anti-inflammatory effects | anti-inflammatory effects on mast cell degranulation (in words) ([1]; listed as Cannabigerol): does not have significant effects on mast cell degranulation | Outcome (normalized cellular degranulation response) (RBL2H3 cells [3]; [8]): 0.92 | Outcome (normalized cellular degranulation response) (RBL2H3 cells [3]; [9]): 0.28 | Outcome (normalized cellular degranulation response) (RBL2H3 cells [3]; [10]): 0.98

C=C(C)[C@@H]1CCC(C)=C[C@H]1c1c(O)cc(CCC)cc1O [cannabidivarin]
histamine release (Mast cells [5]; in response to cannabidivarin without concurrent FcεRI ligation, 10 minute exposure): about 340 pg/10 million cells | effect of pretreatment on FcεRI ligation-induced histamine release (Mast cells [5]; pretreatment with 10 μM for 10 minutes before FcεRI ligation): significantly enhanced pro-inflammatory effects of FcεRI ligation; also recorded: further enhanced pro-inflammatory effects | increase of FcεRI ligation-induced histamine secretion [1]: 26% | increase of FcεRI ligation-induced histamine secretion ([1]; listed as Cannabidivarin): more than 20%

CCCCCCC(C)(C)c1ccc([C@@H]2C[C@H](O)CC[C@H]2CCCO)c(O)c1 [CP55940]
suppression of histamine release of mast cells [6]: about 30%

CCCCCc1cc(O)c2c(c1)OC(C)(C)c1ccc(C)cc1-2 [cannabinol]
inhibition at 10 µM [1, 7]: ≤ 20%

C=CC(C)(O)CCC=C(C)C (stereo not drawn) [linalool]
anti-inflammatory effects on mast cell degranulation (in words) [1]: almost no anti-inflammatory effects
